This note sets out measurements from ChEMBL document CHEMBL3045964, “Synthesis, cytotoxicity, and structureactivity insight of NH- and N-methyl-3,5-bis-(arylidenyl)-4-piperidones” (Med Chem Res, 2013).

The subject of one experiment is L1210. The experiment is described as follows: Cytotoxicity against Mus musculus (mouse) L1210 cells assessed as growth inhibition after 72 hr by MTT assay. Format: functional, cell-based. The settings on record: L1210, 72 h.
The subject of the next experiment is B16. The experiment is described as follows: Cytotoxicity against Mus musculus (mouse) B16 cells assessed as growth inhibition after 72 hr by MTT assay. It is filed as functional, cell-based. The conditions noted are these: B16, 72 h. A general note: Tetrazolium assays rely on reduction of a dye to a coloured formazan, in cell work by metabolically active cells.

For orientation: IC50 means the concentration that inhibits the measured activity by half. For `O=C1/C(=C/c2ccc(Cl)c(Cl)c2)CNC/C1=C\c1ccc(Cl)c(Cl)c1`, the figures for the IC50 with L1210 and in the experiment with B16 were 3.6 µM and 4.1 µM, respectively.

Consider `O=C1/C(=C/c2ccc(O)c([N+](=O)[O-])c2)CNC/C1=C\c1ccc(O)c([N+](=O)[O-])c1`, for which the IC50 was determined as 2 µM in the experiment with L1210 and 7.3 µM with B16.

As to `CCN(CC)c1ccc2cc(/C=C3\CNC/C(=C\c4cc5ccc(N(CC)CC)cc5oc4=O)C3=O)c(=O)oc2c1`, the IC50 in the experiment with L1210 is 29 µM; with B16, 44 µM.

As for `CCN(CC)c1ccc(/C=C2\CN(C)C/C(=C\c3ccc(N(CC)CC)cc3)C2=O)cc1`, the IC50 is 3.3 µM in the experiment on L1210 and 33 µM in the experiment on B16.

With `CCN(CC)c1ccc(/C=C2\CNC/C(=C\c3ccc(N(CC)CC)cc3)C2=O)cc1`, the IC50 with L1210 came to 35 µM; in the experiment with B16, 1.5 µM.

On to `CN1C/C(=C\c2ccc(N(C)C)cc2)C(=O)/C(=C/c2ccc(N(C)C)cc2)C1`, for which the IC50 came out at 28.5 µM in the experiment on L1210 and 23.5 µM with B16.

Turning to `COc1ccc(/C=C2\CNC/C(=C\c3ccc(OC)nc3)C2=O)cn1`, the values for the IC50 in the experiment on L1210 and in the experiment with B16 were 2.8 µM and 3.6 µM, respectively.

As for `COc1ccc(OC)c(/C=C2\CNC/C(=C\c3cc(OC)ccc3OC)C2=O)c1`, the IC50 with L1210 and in the experiment with B16 was 0.3 µM each time.

Regarding `O=C1/C(=C/c2ccc3c(c2)OCO3)CNC/C1=C\c1ccc2c(c1)OCO2`, the half-inhibitory concentration (IC50) was 12.5 µM in the experiment on L1210 and 25 µM in the experiment on B16.

Regarding `COc1cc(/C=C2\CNC/C(=C\c3cc(OC)cc(OC)c3)C2=O)cc(OC)c1`, the IC50 in the experiment on L1210 and with B16 was 0.3 µM throughout.

With `COc1cc(OC)c(/C=C2\CNC/C(=C\c3c(OC)cc(OC)cc3OC)C2=O)c(OC)c1`, the IC50 with L1210 was 1.1 µM; in the experiment with B16, 0.2 µM.

As for `COc1cccc(/C=C2\CNC/C(=C\c3cccc(OC)c3)C2=O)c1`, the IC50 with L1210 amounted to 4.3 µM; with B16 it was 1.9 µM.

Consider `O=C1/C(=C/c2cccc(Br)c2)CNC/C1=C\c1cccc(Br)c1`, for which the IC50 in the experiment on L1210 is greater than 100 µM; in the experiment on B16, 2.1 µM.

For `CN1C/C(=C\c2cccc(Br)c2)C(=O)/C(=C/c2cccc(Br)c2)C1`, the figures for the IC50 in the experiment with L1210 and with B16 were 5 µM and 2.1 µM, respectively.

`CN1C/C(=C\c2ccc(F)cc2)C(=O)/C(=C/c2ccc(F)cc2)C1`: the results for the IC50 in the experiment with L1210 and with B16 were 31 µM and 6.5 µM, respectively.

With `O=C1/C(=C/c2cccc(O)c2)CNC/C1=C\c1cccc(O)c1`, the IC50 worked out at 2.3 µM with L1210 and 0.7 µM in the experiment on B16.

In the case of `O=C1/C(=C/c2ccc(Cl)cc2)CNC/C1=C\c1ccc(Cl)cc1`, the IC50 is 7 µM in the experiment on L1210 and 4 µM in the experiment with B16.

As for `O=C1/C(=C/c2ccc(F)cc2)CNC/C1=C\c1ccc(F)cc1`, the results for the IC50 in the experiment with L1210 and in the experiment on B16 were 24.5 µM and 3.8 µM, respectively.

Turning to `CN(C)c1ccc(/C=C2\CNC/C(=C\c3ccc(N(C)C)cc3)C2=O)cc1`, the IC50 in the experiment with L1210 came out at 42.5 µM; in the experiment with B16, 32.5 µM.

On to `CN1C/C(=C\c2ccc(Cl)cc2)C(=O)/C(=C/c2ccc(Cl)cc2)C1`, for which the IC50 in the experiment with L1210 stood at 10 µM; in the experiment with B16 it was 3.8 µM.
